Results taken from ChEMBL document CHEMBL1201862, “PubChem BioAssay data set” (2004).
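How tested: cells in 96-well plates exposed to compound for 48 hours at five concentrations. GI50 = concentration required for 50% inhibition of growth.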 Active and inactive are the calls of the source. No stated cut-off is given here; in the data, active = GI50 up to about 1.1 µM and inactive = higher.

Experiments:
Assay in all cases: inhibition of tumour cell growth, NCI panel, 48 h
DLD-1 = system: DLD-1
SNB-78 = system: SNB-78
RXF 631 = system: RXF 631
KM-20L2 = system: KM-20L2
M19-MEL = system: M19-MEL
LXFL 529 = system: LXFL 529
DMS-114 = system: DMS-114
XF498 = system: XF498
HOP-18 = system: HOP-18

SMILES	GI50 (DLD-1)	GI50 (SNB-78)	GI50 (RXF 631)	GI50 (KM-20L2)	GI50 (M19-MEL)	GI50 (LXFL 529)	GI50 (DMS-114)	GI50 (XF498)	GI50 (HOP-18)
O=c1[nH]c(=O)n([C@@H]2O[C@H](CO)[C@@H](O)[C@H]2O)cc1F [5-FLUOROURIDINE]	0.0861 µM (active)	0.211 µM (active)	1.05 µM (active)	0.594 µM (active)	0.481 µM (active)	0.15 µM (active)	10.4 µM (inactive)	1.92 µM (inactive)	–
COc1ccc(-c2nc(N)nc(-c3cc(C)ccc3O)c2Cl)cc1	39.9 µM (inactive)	24.3 µM (inactive)	> 100 µM (inactive)	> 100 µM (inactive)	93.3 µM (inactive)	33 µM (inactive)	48.2 µM (inactive)	35.6 µM (inactive)	> 100 µM (inactive)
CNc1cccc(-c2cc(O)c3cc4c(cc3n2)OCO4)c1	0.181 µM (active)	0.318 µM (active)	–	–	0.445 µM (active)	0.119 µM (active)	0.723 µM (active)	3.82 µM (inactive)	0.881 µM (active)
CCOC(=O)CC1(C(=O)OCC)c2[nH]c3ccccc3c2CCN1Cc1ccccc1 (configuration not stated)	24.4 µM (inactive)	40.7 µM (inactive)	–	17.1 µM (inactive)	14.3 µM (inactive)	25.4 µM (inactive)	18.3 µM (inactive)	24.2 µM (inactive)	23 µM (inactive)
COc1ccc(CCNCCCC2c3ccccc3-c3ccccc32)cc1OC	16.1 µM (inactive)	15.7 µM (inactive)	–	3.45 µM (inactive)	11.1 µM (inactive)	14.1 µM (inactive)	7.48 µM (inactive)	14.7 µM (inactive)	16.8 µM (inactive)
N#C/C(=C\c1ccc2[nH]ccc2c1)C(=O)c1ccc(O)c(O)c1	> 100 µM (inactive)	> 100 µM (inactive)	–	61.5 µM (inactive)	> 100 µM (inactive)	> 100 µM (inactive)	81.7 µM (inactive)	–	71.4 µM (inactive)
O=S1(=O)OCCOS(=O)(=O)C1(Cl)Cl	> 100 µM (inactive)	> 100 µM (inactive)	> 100 µM (inactive)	–	> 100 µM (inactive)	> 100 µM (inactive)	> 100 µM (inactive)	> 100 µM (inactive)	–
CCCCCCC(/C=N/O)C(C)(O)CCC (configuration not stated)	> 100 µM (inactive)	> 100 µM (inactive)	–	> 100 µM (inactive)	> 100 µM (inactive)	> 100 µM (inactive)	73.6 µM (inactive)	13.2 µM (inactive)	–
C=C1CC2(OC1=O)c1ccccc1C=Cc1ccccc12	1.87 µM (inactive)	3.08 µM (inactive)	9.2 µM (inactive)	8.13 µM (inactive)	5.47 µM (inactive)	2.92 µM (inactive)	7.76 µM (inactive)	13.6 µM (inactive)	14.3 µM (inactive)
CN(C)[C@@H]1C(O)=C(C(=O)NCNCCCC(=O)O)C(=O)[C@@]2(O)C(O)=C3C(=O)c4c(O)cccc4[C@@](C)(O)[C@H]3C[C@@H]12	> 100 µM (inactive)	> 100 µM (inactive)	–	> 100 µM (inactive)	> 100 µM (inactive)	> 100 µM (inactive)	> 100 µM (inactive)	> 100 µM (inactive)	> 100 µM (inactive)
O=C1OC(c2cccc(C(F)(F)F)c2)c2ccc3ccccc3c21 (configuration not stated)	4.79 µM (inactive)	> 100 µM (inactive)	3.42 µM (inactive)	> 10 µM (inactive)	> 10 µM (inactive)	8.3 µM (inactive)	5.57 µM (inactive)	> 100 µM (inactive)	> 10 µM (inactive)
CCC(C)(O)c1cn(-c2cccc(S(=O)(=O)O)c2)nn1 (configuration not stated)	> 100 µM (inactive)	> 100 µM (inactive)	–	> 100 µM (inactive)	–	> 100 µM (inactive)	> 100 µM (inactive)	> 100 µM (inactive)	> 100 µM (inactive)
COc1cc(/C=N\O[Si](C)(C)C(C)(C)C)ccc1O[Si](C)(C)C(C)(C)C	89.9 µM (inactive)	> 100 µM (inactive)	30.1 µM (inactive)	> 100 µM (inactive)	74.5 µM (inactive)	70.1 µM (inactive)	28.1 µM (inactive)	38.6 µM (inactive)	> 100 µM (inactive)
COC(=O)C(C(=O)C(=O)Nc1nnc(S)[nH]1)c1csc(N)n1 (configuration not stated)	> 100 µM (inactive)	> 100 µM (inactive)	> 100 µM (inactive)	> 100 µM (inactive)	> 100 µM (inactive)	> 100 µM (inactive)	–	> 100 µM (inactive)	> 100 µM (inactive)
COc1ccc(NC(=O)CCc2cc(C(C)(C)C)[nH]n2)cc1	–	> 100 µM (inactive)	> 100 µM (inactive)	> 100 µM (inactive)	> 100 µM (inactive)	> 100 µM (inactive)	–	> 100 µM (inactive)	> 100 µM (inactive)
O=C1[C@@H]2C(c3ccccc3[N+](=O)[O-])=NO[C@@H]2C(=O)N1c1ccc(Cc2ccc(N3C(=O)[C@H]4C(c5ccccc5[N+](=O)[O-])=NO[C@H]4C3=O)cc2)cc1	> 100 µM (inactive)	> 100 µM (inactive)	–	> 100 µM (inactive)	–	> 100 µM (inactive)	> 100 µM (inactive)	–	> 100 µM (inactive)
COc1ccc(-c2onc(-c3c(C)cc(C)cc3C)c2C2=NCCCN2)cc1	78.3 µM (inactive)	35.1 µM (inactive)	44.4 µM (inactive)	33.4 µM (inactive)	> 100 µM (inactive)	> 100 µM (inactive)	–	60 µM (inactive)	2.1 µM (inactive)
OC12c3ccccc3C1CCCCCC21OCCCO1 (configuration not stated)	> 100 µM (inactive)	> 100 µM (inactive)	–	> 100 µM (inactive)	> 100 µM (inactive)	> 100 µM (inactive)	> 100 µM (inactive)	–	> 100 µM (inactive)
CCOc1ccc(NC(=O)CC2SC(Nc3ccc(C)cc3C)=NC2=O)cc1 (configuration not stated)	> 100 µM (inactive)	> 100 µM (inactive)	–	> 100 µM (inactive)	> 100 µM (inactive)	66.2 µM (inactive)	–	50.4 µM (inactive)	–
CCO/C=C1\N=C(c2ccccc2Br)OC1=O	> 100 µM (inactive)	> 100 µM (inactive)	–	> 100 µM (inactive)	> 100 µM (inactive)	> 100 µM (inactive)	> 100 µM (inactive)	> 100 µM (inactive)	–
O=C(Nc1cc(Cl)c(Cl)cc1Cl)C(=O)C1C=CCS1(=O)=O (configuration not stated)	> 100 µM (inactive)	11.2 µM (inactive)	–	> 100 µM (inactive)	> 100 µM (inactive)	> 100 µM (inactive)	> 100 µM (inactive)	–	> 100 µM (inactive)
Cn1c2c([N+](=O)[O-])cccc2c(=O)c2c(O)cc3c(c21)C=CC(C)(C)O3	24.8 µM (inactive)	38 µM (inactive)	33.7 µM (inactive)	17.7 µM (inactive)	–	25.6 µM (inactive)	22.8 µM (inactive)	11.5 µM (inactive)	< 0.01 µM (active)
